The record followed here is US20240239806A1, “COMPOUNDS, COMPOSITIONS AND METHODS OF TREATING DISORDERS” (Chengdu Anticancer Bioscience, Ltd., priority 2021, published 2024).

Structures are written as SMILES. Where two headings read alike, the source gives them in different places. A value given as a limit tells only on which side of the number the result lay.

This test relates to RPEMYC^H2B-GFP cells. The test is described as follows: Phenotypic screening assay (mitotic arrest, polyploidy). The following applies: 1 nM to 30 μM; for IC50: read-out: Proliferative arrest (>50%). It is filed as cell-based. The protocol: We have previously developed a mechanism-informed phenotypic screening assay to identify novel antimitotic agents. Equipped with a prior understanding of the versatile functions of the chromosomal passenger protein (CPP) complex in orchestrating karyokinesis and cytokinesis, the screening assay is to score for phenotypes typically seen when the CPP complex is disabled. Specifically, the parameters for a positive hit are a temporary elevation of mitotic index (MI) at 24 hours of drug treatment and an accumulation of polyploid cells at 48 hours of drug treatment, indicative of mitotic arrest and cytokinetic failure respectively. These parameters exclude compounds that elicit only a prolonged arrest of cells in mitosis, a phenotype typically provoked by spindle toxins. The screening procedure is briefly summarized here. RPEMYC^H2B-GFP cells engineered to express a Histone 2B-EGFP fusion protein were passaged as batches of 96-well plates, 18-24 hours before exposure to the chemical compounds of the present disclosure at concentrations from 1 nM to 30 μM. At 24, 48 or 72 hours after initiation of treatment, cells were analyzed for either an arrest in mitosis or a change in DNA content by GE IN-Cell Analyzer 2000. As set forth in Table 2 below, a value of greater than or equal to 1 nM and less than or equal to 1.0 μM is marked “A”; a value greater than 1.00 μM and less than or equal to 10.0 μM is marked “B”; a value greater than 10.0 μM and less than or equal to 30.0 μM is marked “C”; and a value greater than 30.0 μM is marked “D.”

The mark [1] stands for this setting: read-out: Min. Effective conc. for Polyploidy (≥5%).

Regarding `Cc1cc(Oc2ccnc3ccc(C(N)=O)cc23)cc(-n2cccn2)c1` [Compound 1, 4-(3-methyl-5-(1H-pyrazol-1-yl)phenoxy)quinoline-6-carboxamide], the minimal effective concentration runs as follows: under setting [1], 0.001 to 1 µM; (read-out: Mitotic Arrest (≥5%)) 0.001 to 1 µM.
As to `NC(=O)c1ccc2nccc(Oc3cc(Cl)cc(-n4cccn4)c3)c2c1` [Compound 2, 4-(3-chloro-5-(1H-pyrazol-1-yl)phenoxy)quinoline-6-carboxamide], the minimal effective concentration was > 30 µM under setting [1] and > 30 µM (read-out: Mitotic Arrest (≥5%)).
As for `COc1cc(Oc2ccnc3ccc(C(N)=O)cc23)cc(O[C@@H]2CCOC2)c1` [Compound 3, (R)-4-(methoxy-5-((tetrahydrofuran-3-yl)oxy)phenoxy)quinoline-6-carboxamide], the minimal effective concentration under setting [1] lay in the range of 0.001 to 1 µM and the minimal effective concentration (read-out: Mitotic Arrest (≥5%)) lay in the range of 0.001 to 1 µM.
As to `COc1cc2nccc(Oc3cc(-n4cccn4)cc(-n4cccn4)c3)c2cc1C(N)=O` [Compound 4, 4-(3,5-di(1H-pyrazol-1-yl)phenoxy)-7-methoxyquinoline-6-carboxamide], the minimal effective concentration by setting is: under setting [1], 0.001 to 1 µM; (read-out: Mitotic Arrest (≥5%)) 0.001 to 1 µM.
With `COc1cc2nccc(Oc3cc(Cl)cc(-n4cccn4)c3)c2cc1C(N)=O` [Compound 5, 4-(3-chloro-5-(1H-pyrazol-1-yl)phenoxy)-7-methoxyquinoline-6-carboxamide], the minimal effective concentration is, setting by setting: under setting [1], 1 to 10 µM; (read-out: Mitotic Arrest (≥5%)) 1 to 10 µM.
In the case of `COc1cc(Oc2ccnc3cc(OC)c(C(N)=O)cc23)cc(OC2CCOC2)c1` (stereo not drawn) [Compound 6, 7-methoxy-4-(3-methoxy-5-((tetrahydrofuran-3-yl)oxy)phenoxy)quinoline-6-carboxamide], the minimal effective concentration was in the range of 0.001 to 1 µM under setting [1] and 0.001 to 1 µM (read-out: Mitotic Arrest (≥5%)).
For the compound `COc1cc(Oc2ccnc3ccccc23)cc(C(=O)O)c1` [Compound 9, 3-methoxy-5-(quinolin-4-yloxy) benzoic add], the IC50 is > 30 µM. Besides, the minimal effective concentration under setting [1] was > 30 µM. Further, the minimal effective concentration (read-out: Mitotic Arrest (≥5%)) is > 30 µM.
For the compound `CNC(=O)c1cc(OC)cc(Oc2ccnc3ccccc23)c1` [Compound 10, 3-methoxy-N-methyl-5-(quinolin-4-yloxy)benzamide], the IC50 fell in the range of 1 to 10 µM. Further, under setting [1], the minimal effective concentration was 1 to 10 µM. Under “read-out: Mitotic Arrest (≥5%)”, the minimal effective concentration was in the range of 0.001 to 1 µM.
As for `COc1cc(Oc2ccnc3ccccc23)cc(C(F)(F)F)c1` [Compound 11], the IC50 fell in the range of 1 to 10 µM. In addition, under setting [1], the minimal effective concentration is 1 to 10 µM. For the same compound, the minimal effective concentration (read-out: Mitotic Arrest (≥5%)) was 1 to 10 µM.
As for `COc1cc(Oc2ccnc3ccccc23)cc(-c2nc(C)no2)c1` [Compound 13, 5-(3-methoxy-5-(quinolin-4-yloxy)phenyl)-3-methyl-oxadiazole], the IC50 was in the range of 0.001 to 1 µM. Moreover, the minimal effective concentration under setting [1] fell in the range of 0.001 to 1 µM. The minimal effective concentration (read-out: Mitotic Arrest (≥5%)) was in the range of 0.001 to 1 µM.
As for `COc1cc(NC(C)=O)cc(Oc2ccnc3cc(OC)c(C(N)=O)cc23)c1` [Compound 31, 4-(3-acetamido-5-methoxyphenoxy)-7-methoxyquinoline-6-carboxamide], the IC50 was in the range of 0.001 to 1 µM. Also, the minimal effective concentration under setting [1] fell in the range of 0.001 to 1 µM. In addition, where the note is “read-out: Mitotic Arrest (≥5%)”, the minimal effective concentration fell in the range of 0.001 to 1 µM.
As for `COC(=O)c1cc(OC)cc(Oc2ncnc3sccc23)c1` [Compound 41, methyl 3-methoxy-5-(thieno[2,3-d]pyrimidin-4-yloxy)benzoate], the IC50 fell in the range of 0.001 to 1 µM. Besides, the minimal effective concentration under setting [1] lay within 0.001 to 1 µM. Besides, the minimal effective concentration (read-out: Mitotic Arrest (≥5%)) is 0.001 to 1 µM.
Regarding `CNC(=O)c1cc2c(Oc3cc(OC)cc(-n4cccn4)c3)ccnc2cc1OC` [Compound 44, 7-Methoxy-4-(3-methoxy-5-(1H-pyrazol-1-yl)phenoxy)-N-methylquinoline-6-carboxamide], the IC50 lay within 1 to 10 µM. Also, the minimal effective concentration under setting [1] lay in the range of 1 to 10 µM. Further, the minimal effective concentration (read-out: Mitotic Arrest (≥5%)) fell in the range of 1 to 10 µM.
For `CNC(=O)c1cc2c(Oc3cc(NC(C)=O)cc(OC)c3)ccnc2cc1OC` [Compound 45, 4-(3-Acetamido-5-methoxyphenoxy)-7-methoxy-N-methylquinoline-6-carboxamide], the IC50 was 1 to 10 µM. The minimal effective concentration under setting [1] is 1 to 10 µM. Moreover, the minimal effective concentration (read-out: Mitotic Arrest (≥5%)) was 1 to 10 µM.
For `COC(=O)c1ccc2nccc(Oc3cc(OC)cc(-n4cccn4)c3)c2c1` [Compound 46, Methyl 4-(3-methoxy-5-(1H-pyrazol-1-yl)phenoxy)quinoline-6-carboxylate], the IC50 lay within 0.001 to 1 µM. The minimal effective concentration under setting [1] was in the range of 0.001 to 1 µM. Moreover, the minimal effective concentration (read-out: Mitotic Arrest (≥5%)) is 0.001 to 1 µM.
With `COc1cc(OC)cc(Oc2ccnc3ccc(-c4ccco4)cc23)c1` [Compound 47, 4-(3,5-Dimethoxyphenoxy)-6-(furan-2-yl)quinoline], the IC50 fell in the range of 1 to 10 µM. Also, the minimal effective concentration under setting [1] fell in the range of 1 to 10 µM. The minimal effective concentration (read-out: Mitotic Arrest (≥5%)) lay within 1 to 10 µM.
`COc1cc(OC)cc(Oc2ccnc3ccc(Br)cc23)c1` [Compound 48, 6-Bromo-4-(3,5-dimethoxyphenoxy) quinoline]: the IC50 lay within 0.001 to 1 µM. Under setting [1], the minimal effective concentration is 0.001 to 1 µM. In addition, the minimal effective concentration (read-out: Mitotic Arrest (≥5%)) lay in the range of 0.001 to 1 µM.
For the compound `COc1cc(Oc2ccnc3ccc(C(F)(F)F)cc23)cc(-n2cccn2)c1` [Compound 49, 4-(3-Methoxy-5-(1H-pyrazol-1-yl)phenoxy)-6-(trifluoromethyl) quinoline], the IC50 fell in the range of 0.001 to 1 µM. In addition, the minimal effective concentration under setting [1] was in the range of 0.001 to 1 µM. In addition, the minimal effective concentration (read-out: Mitotic Arrest (≥5%)) fell in the range of 0.001 to 1 µM.
Regarding `COc1cc(NC(C)=O)cc(Oc2ccnc3ccc(Cl)cc23)c1` [Compound 50, N-(3-((6-chloroquinolin-4-yl)oxy)-5-methoxyphenyl) acetamide], the IC50 was 0.001 to 1 µM. Moreover, under setting [1], the minimal effective concentration fell in the range of 0.001 to 1 µM. The minimal effective concentration (read-out: Mitotic Arrest (≥5%)) is 0.001 to 1 µM.
As to `COc1cc(Oc2ccnc3ccc(Cl)cc23)cc(-n2cccn2)c1` [Compound 51, 6-Chloro-4-(3-methoxy-5-(1H-pyrazol-1-yl)phenoxy) quinoline], the IC50 is 0.001 to 1 µM. In addition, the minimal effective concentration under setting [1] lay within 0.001 to 1 µM. Also, under “read-out: Mitotic Arrest (≥5%)”, the minimal effective concentration lay in the range of 0.001 to 1 µM.
`COc1cc(NC(C)=O)cc(Oc2ccnc3ccc(C(=O)O)cc23)c1` [Compound 52, 4-(3-Acetamido-5-methoxyphenoxy) quinoline-6-carboxylic acid]: the IC50 lay within 10 to 30 µM. For the same compound, under setting [1], the minimal effective concentration fell in the range of 10 to 30 µM. Also, the minimal effective concentration (read-out: Mitotic Arrest (≥5%)) fell in the range of 1 to 10 µM.
`CNC(=O)c1ccc2nccc(Oc3cc(NC(C)=O)cc(OC)c3)c2c1` [Compound 53, 4-(3-Acetamido-5-methoxyphenoxy)-N-methylquinoline-6-carboxamide]: the IC50 is 0.001 to 1 µM. The minimal effective concentration under setting [1] was 0.001 to 1 µM. The minimal effective concentration (read-out: Mitotic Arrest (≥5%)) was in the range of 0.001 to 1 µM.
For the compound `COc1cc(OC)cc(Oc2ncnc3ccn(C)c23)c1` [Compound 54, 4-(3,5-Dimethoxyphenoxy)-5-methyl-5H-pyrrolo[3,2-d] pyrimidine], the IC50 is 10 to 30 µM. Moreover, the minimal effective concentration under setting [1] was in the range of 10 to 30 µM. For the same compound, for the setting “read-out: Mitotic Arrest (≥5%)”, the minimal effective concentration fell in the range of 1 to 10 µM.
Consider `COc1cc(NC(C)=O)cc(Oc2ccnc3ccc(C(F)(F)F)cc23)c1` [Compound 55, N-(3-Methoxy-5-((6-(trifluoromethyl)quinolin-4-yl)oxy)phenyl)acetamide], for which the IC50 lay within 0.001 to 1 µM. In addition, under setting [1], the minimal effective concentration is 0.001 to 1 µM. In addition, under “read-out: Mitotic Arrest (≥5%)”, the minimal effective concentration was 0.001 to 1 µM.
As to `COc1cc(NC(C)=O)cc(Oc2ncnc3ccn(C)c23)c1` [Compound 56, N-(3-methoxy-5-((5-methyl-5H-pyrrolo[3,2-d]pyrimidin-4-yl)oxy)phenyl) acetamide], the IC50 is 10 to 30 µM. The minimal effective concentration under setting [1] was in the range of 10 to 30 µM. Under “read-out: Mitotic Arrest (≥5%)”, the minimal effective concentration lay in the range of 1 to 10 µM.
As to `CNC(=O)c1ccc2nccc(Oc3cc(OC)cc(-n4cccn4)c3)c2c1` [Compound 57, 4-(3-Methoxy-5-(1H-pyrazol-1-yl)phenoxy)-N-methylquinoline-6-carboxamide], the IC50 lay in the range of 0.001 to 1 µM. For the same compound, the minimal effective concentration under setting [1] lay in the range of 0.001 to 1 µM. The minimal effective concentration (read-out: Mitotic Arrest (≥5%)) is 0.001 to 1 µM.
Take `COc1cc(NC(C)=O)cc(Oc2ccnc3ccc(C(=O)N(C)C)cc23)c1` [Compound 58, 4-(3-acetamido-5-methoxyphenoxy)-N, N-dimethylquinoline-6-carboxamide]: the IC50 was 1 to 10 µM. Besides, the minimal effective concentration under setting [1] lay within 1 to 10 µM. Under “read-out: Mitotic Arrest (≥5%)”, the minimal effective concentration is 1 to 10 µM.
With `CCOc1cc(Oc2ccnc3cc(OC)c(C(N)=O)cc23)cc(-n2cccn2)c1` [Compound 59, 4-(3-ethoxy-5-(1H-pyrazol-1-yl)phenoxy)-7-methoxyquinoline-6-carboxamide], the IC50 was in the range of 0.001 to 1 µM. Further, under setting [1], the minimal effective concentration fell in the range of 0.001 to 1 µM. In addition, the minimal effective concentration (read-out: Mitotic Arrest (≥5%)) lay within 0.001 to 1 µM.
For the compound `COc1cc(NC(C)=O)cc(Oc2ccnc3ccc(I)cc23)c1` [Compound 60, N-(3-((6-iodoquinolin-4-yl)oxy)-5-methoxyphenyl) acetamide], the IC50 was in the range of 0.001 to 1 µM. Moreover, under setting [1], the minimal effective concentration lay in the range of 0.001 to 1 µM. The minimal effective concentration (read-out: Mitotic Arrest (≥5%)) fell in the range of 0.001 to 1 µM.
